In patent publication US8772293B2, “Chemical compounds” (Pfizer Limited, priority 2010, dated 2014) one finds IC50 data, which are given here for six compounds.

Structures can show the parent of a compound that is named as a salt.

The target of the assay is T1, Nav1.7 (or SCN9A) channel (Homo sapiens, UniProt Q15858).
T1 construct: expressed in transfected cells
T1 sequence (Q15858 whole entry): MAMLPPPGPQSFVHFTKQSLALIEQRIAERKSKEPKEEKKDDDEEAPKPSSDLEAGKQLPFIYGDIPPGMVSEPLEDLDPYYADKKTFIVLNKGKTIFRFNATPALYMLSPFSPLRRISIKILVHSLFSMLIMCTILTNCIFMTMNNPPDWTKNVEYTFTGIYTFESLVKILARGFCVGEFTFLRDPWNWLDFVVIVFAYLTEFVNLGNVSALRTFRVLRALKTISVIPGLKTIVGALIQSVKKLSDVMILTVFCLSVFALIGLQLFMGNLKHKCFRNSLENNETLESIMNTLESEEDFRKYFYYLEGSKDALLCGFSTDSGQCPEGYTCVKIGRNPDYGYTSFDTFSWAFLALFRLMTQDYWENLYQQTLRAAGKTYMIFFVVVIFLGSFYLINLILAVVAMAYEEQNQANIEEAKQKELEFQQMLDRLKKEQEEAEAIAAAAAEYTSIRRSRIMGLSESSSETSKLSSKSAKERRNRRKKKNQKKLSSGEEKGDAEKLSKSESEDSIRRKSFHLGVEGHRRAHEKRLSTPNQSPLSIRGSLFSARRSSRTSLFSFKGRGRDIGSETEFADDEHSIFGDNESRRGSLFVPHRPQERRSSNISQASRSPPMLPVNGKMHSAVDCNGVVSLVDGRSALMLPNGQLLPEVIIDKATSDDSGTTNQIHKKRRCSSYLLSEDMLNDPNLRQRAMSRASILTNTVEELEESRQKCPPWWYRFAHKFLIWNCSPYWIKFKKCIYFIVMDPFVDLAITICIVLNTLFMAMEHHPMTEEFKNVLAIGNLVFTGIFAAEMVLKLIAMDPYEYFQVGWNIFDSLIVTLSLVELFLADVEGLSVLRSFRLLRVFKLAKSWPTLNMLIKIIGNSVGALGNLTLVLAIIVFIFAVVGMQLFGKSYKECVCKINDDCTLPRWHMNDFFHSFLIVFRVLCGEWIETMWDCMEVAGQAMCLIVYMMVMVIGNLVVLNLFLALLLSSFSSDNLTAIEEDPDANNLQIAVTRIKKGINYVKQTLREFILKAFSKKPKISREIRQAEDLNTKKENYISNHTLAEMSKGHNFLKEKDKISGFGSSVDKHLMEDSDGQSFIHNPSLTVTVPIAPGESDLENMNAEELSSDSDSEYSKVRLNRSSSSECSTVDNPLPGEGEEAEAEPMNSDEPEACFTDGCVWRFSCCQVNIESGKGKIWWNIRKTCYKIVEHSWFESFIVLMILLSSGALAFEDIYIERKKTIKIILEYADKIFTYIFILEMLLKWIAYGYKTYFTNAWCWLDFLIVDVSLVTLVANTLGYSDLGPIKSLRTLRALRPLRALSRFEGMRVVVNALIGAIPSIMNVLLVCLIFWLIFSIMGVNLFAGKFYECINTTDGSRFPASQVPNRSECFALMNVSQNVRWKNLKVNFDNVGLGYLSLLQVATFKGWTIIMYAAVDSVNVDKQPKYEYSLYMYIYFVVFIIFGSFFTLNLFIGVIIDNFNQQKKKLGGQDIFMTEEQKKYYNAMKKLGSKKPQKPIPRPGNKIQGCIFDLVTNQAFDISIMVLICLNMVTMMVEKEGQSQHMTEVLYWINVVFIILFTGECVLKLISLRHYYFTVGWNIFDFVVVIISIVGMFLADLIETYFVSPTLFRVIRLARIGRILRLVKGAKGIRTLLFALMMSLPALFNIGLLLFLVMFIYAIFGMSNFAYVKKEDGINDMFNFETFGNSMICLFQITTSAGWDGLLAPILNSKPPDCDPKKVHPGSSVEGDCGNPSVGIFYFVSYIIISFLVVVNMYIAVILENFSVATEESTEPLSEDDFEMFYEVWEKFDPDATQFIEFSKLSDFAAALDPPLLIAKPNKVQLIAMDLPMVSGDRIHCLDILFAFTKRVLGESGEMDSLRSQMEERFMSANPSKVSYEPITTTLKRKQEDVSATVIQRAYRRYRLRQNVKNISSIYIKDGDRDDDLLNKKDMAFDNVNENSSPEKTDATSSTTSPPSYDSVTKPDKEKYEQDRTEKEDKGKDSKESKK
Kind of assay: Nav1.7 (hSCN9A) PatchXpress electrophysiology in HEK cells. Type of assay: cell-based. The settings on record: PatchXpress platform; HEK cells stably expressing hSCN9A; held at V1/2 of inactivation; calculated from single point % inhibition; read-out: Nav1.7 EIC50 (estimated IC-50). The protocol: The ability of the compounds of formula (I) to block the Nav1.7 (or SCN9A) channel were measured using the assay described below.
Human Embryonic Kidney (HEK) cells were transfected with an hSCN9A construct using lipofectamine reagent (Invitrogen), using standard techniques. Cells stably expressing the hSCN9A constructs were identified by their resistance to G-418 (400 μg/ml). Clones were screened for expression using the whole-cell voltage-clamp technique.
HEK cells stably transfected with hSCN9A were maintained in DMEM medium supplemented with 10% heat-inactivated fetal bovine serum and 400 µg/ml G-418 in an incubator at 37° C. with a humidified atmosphere of 10% CO2. For HTS, cells were harvested from flasks by trypsinization and replated in an appropriate multi-well plate (typically 96 or 384 wells/plate) such that confluence would be achieved within 24 hours of plating. For electrophysiological studies, cells were removed from the culture flask by brief trypsinization and re-plated at low density onto glass cover slips. Cells were typically used for electrophysiological experiments within 24 to 72 hours after plating.
Cover slips containing HEK cells expressing hSCN9A were placed in a bath on the stage of an inverted microscope and perfused (approximately 1 ml/minutes) with extracellular solution of the following composition: 138 mM NaCl, 2 mM CaCl2, 5.4 mM KCl, 1 mM MgCl2, 10 mM glucose, and 10 mM HEPES, pH 7.4, with NaOH. […] The osmolarity of the extracellular and intracellular solutions was 300 mOsm/kg and 295 mOsm/kg, respectively. All recordings were made at room temperature (22-24° C.) using AXOPATCH 200B amplifiers and PCLAMP software (Axon Instruments, Burlingame, Calif.).
hSCN9A currents in HEK cells were measured using the whole-cell configuration of the patch-clamp technique (Hamill et al., 1981). Uncompensated series resistance was typically 2 to 5 mega ohms and >85% series resistance compensation was routinely achieved. As a result, voltage errors were negligible and no correction was applied. Current records were acquired at 20 to 50 KHz and filtered at 5 to 10 KHz.
HEK cells stably transfected with hSCN9A were viewed under Hoffman contrast optics and placed in front of an array of flow pipes emitting either control or compound-containing extracellular solutions. All compounds were dissolved in dimethyl sulfoxide to make 10 mM stock solutions, which were then diluted into extracellular solution to attain the final concentrations desired. […] The voltage-dependence of inactivation was determined by applying a series of depolarizing prepulses (8 sec long in 10 mV increments) from a negative holding potential. The voltage was then immediately stepped to 0 mV to assess the magnitude of the sodium current. Currents elicited at 0 mV were plotted as a function of prepulse potential to allow estimation of the voltage at which 50% of the channels were inactivated (midpoint of inactivation or V1/2). Compounds were tested for their ability to inhibit hSCN9A sodium channels by activating the channel with a 20 msec voltage step to 0 mV following an 8 second conditioning prepulse to the empirically determined V1/2. Compound effect (% inhibition) was determined by difference in current amplitude before and after application of test compounds. For ease of comparison, “estimated IC-50” (EIC50) values were calculated from single point electrophysiology data by the following equation, (tested concentration, uM)×(100-% inhibition/% inhibition). Inhibition values <20% and >80% were excluded from the calculation.
Electrophysiological assays were conducted with PatchXpress 7000 hardware and associated software (Molecular Devices Corp). All assay buffers and solutions were identical to those used in conventional whole-cell voltage clamp experiments described above. hSCN9A cells were grown as above to 50%-80% confluency and harvested by trypsinization. […]
`O=S(=O)(Nc1ccncn1)c1cc(Cl)c(Oc2ccc(-c3ccc(C(F)(F)F)cc3)cc2-c2ccnc(N3CCNCC3)c2)cc1F` [Example 35, 5-Chloro-2-fluoro-4-({3-[2-(piperazin-1-yl)pyridin-4-yl]-4′-(trifluoromethyl)biphenyl-4-yl}oxy)-N-(pyrimidin-4-yl)benzenesulfonamide hydrochloride salt]: the IC50 is 2.2 nM.
Turning to `O=S(=O)(Nc1nncs1)c1cc(Cl)c(Oc2cc(-c3cccc(F)c3)c(Cl)cc2-c2ccnnc2)cc1F` [Example 36, 5-Chloro-4-[(6-chloro-3′-fluoro-4-pyridazin-4-ylbiphenyl-3-yl)oxy]-2-fluoro-N-1,3,4-thiadiazol-2-ylbenzenesulfonamide], the IC50 is 11 nM.
As to `O=S(=O)(Nc1nncs1)c1cc(Cl)c(Oc2cc(-c3ccc(F)cc3)c(Cl)cc2-c2ccnnc2)cc1F` [Example 37, 5-Chloro-4-[(6-chloro-4′-fluoro-4-pyridazin-4-ylbiphenyl-3-yl)oxy]-2-fluoro-N-1,3,4-thiadiazol-2-ylbenzenesulfonamide], the IC50 was 12 nM.
Then `O=S(=O)(Nc1nncs1)c1cc(Cl)c(Oc2cc(-c3ccccc3F)c(Cl)cc2-c2ccnnc2)cc1F` [Example 38, 5-Chloro-4-[(6-chloro-2′-fluoro-4-pyridazin-4-ylbiphenyl-3-yl)oxy]-2-fluoro-N-1,3,4-thiadiazol-2-ylbenzenesulfonamide], with 18 nM; and `N#Cc1cccc(-c2ccc(Oc3cc(F)c(S(=O)(=O)Nc4nncs4)cc3Cl)c(-c3ccnnc3)c2)c1` [Example 39, 5-chloro-4-[(3′-cyano-3-pyridazin-4-ylbiphenyl-4-yl)oxy]-2-fluoro-N-1,3,4-thiadiazol-2-ylbenzenesulfonamide], with 7.7 nM; and `O=S(=O)(Nc1ncccn1)c1cc(Cl)c(Oc2ccc(-c3ccc(C(F)(F)F)cc3)cc2-c2ccnc(N3CCNCC3)c2)cc1F` [Example 40, 5-chloro-2-fluoro-4-{[3-(2-piperazin-1-ylpyridin-4-yl)-4′-(trifluoromethyl)biphenyl-4-yl]oxy}-N-pyrimidin-2-ylbenzenesulfonamide], with 1 nM.
